Series [1] is described as follows: water solubility of dicycloplatin. Type of series: physicochemical. The conditions noted are these: room temperature. The source says: (§1) Moreover, in additional polymorph studies of dicycloplatin, it was recognized that the use of shorter aliphatic alcohols (as reported in U.S. Pat. No. 6,699,901) such as methanol, ethanol, isopropanol and butanol led to a significant amount of carboplatin being left in the product because of disproportionation. […] Thus, recrystallization in water was not efficient and was difficult to scale up.

Series [2] in a line: stability of dicycloplatin to heat / hot water (evaporation, slurry). It is filed as physicochemical. As to the method:
• 1) Dissolved 50.0 mg of carboplatin (135 μmol) in 2.8 mL of water in a 3-mL glass vial at RT. • 2) Added 19.4 mg of 1,1-cyclobutane dicarboxylic acid (135 μmol) into the same vial. • 3) Stirred the suspension at RT to obtain a clear solution. • 4) Transferred the clear solution to a 25-mL round-bottom flask and rotary evaporated at a temperature between 50° C. and 55° C. to obtain white crystal solid. • 5) Air-dried the solid to obtain a product.
as §1

The conditions of series [3]: cited from earlier work.

dicycloplatin: the water solubility in series [1] is listed as 40 mg/mL. Moreover, the “thermal stability during evaporation” value in series [2] (evaporation step of the reported process (U.S. Pat. No. 6,699,901)) is given as “sensitive to high temperature”. In series [2] (slurry in hot water), the “stability of a slurry in hot water” value is “partial hydrolysis”. Moreover, the “recommended Phase II dosage” value in series [3] (DCP-containing chemotherapy) is recorded as 450 mg/m^2. Also, in series [3] (in vivo, Chinese cancer patients), the “bioavailability and stability in vivo” value was “favorable”.

Values taken from US9447130B1, “Process for the preparation of dicycloplatin” (Syn-Nat Products Enterprise LLC, priority 2015, dated 2016).
